Drawing on patent publication US20240050576A1, “METHODS AND COMPOUNDS FOR THE TREATMENT OF GENETIC DISEASE” (Design Therapeutics, Inc., priority 2020, published 2024), this text covers EC50 for 23 compounds.

The test system of the first assay is human FXN. As to the kind of experiment: FXN mRNA expression by qRT-PCR in GM15850 cells after 48 hr compound treatment. The settings on record: GM15850 cells, 48 hr incubation, hFXN normalized to hGAPDH; read-out: EC50 WT (nM, 48 hr). The assay is classed as cell-based. The procedure: Cell culture: Cells were cultured in RPMI1640 medium+15% FBS. Cells were maintained at a density between 2e5/mL and 1e6/mL. Cells were centrifuged, resuspended in fresh medium, counted and plated at 150,000 cells per well in 100 uL in a non-coated, flat bottom tissue culture plate.
Compound treatment: 10 mM stock solution of FA GeneTAC was diluted 1:10 in DMSO followed by a 1:100 dilution in growth medium. […] Compound was then diluted at a 1:3 ratio into growth medium containing 0.01% DMSO. 5-point, 3-fold dose response curve was generated. 11 μL of 10× compound was added to wells containing 100 μL cell suspension of GM15850. 11 μL growth medium containing 0.01% DMSO was added to all wells not treated with FA GeneTAC. Cells were allowed to incubate for 48 hrs prior to cell lysis using guanidine isothiocyanate solution.
RNA isolation: Total RNA was isolated and purified in 384-well column filter plates using chaotropic salt.
qRT-PCR: qRT-PCR reactions were assembled using AgPath-ID reagents (Thermo Fisher) using 6 uL mastermix and 4 μL RNA. qRT-PCR TaqMan primer probe sets against human FXN (Assay ID Hs01075496_m1) and human GAPDH (Assay ID Hs00266705_g1) were used to measure the intended targets. qRT-PCR was run on the ThermoFisher QuantStudio 6 PRO instrument using the manufacturer's recommended cycling conditions.
Data analysis: qPCR data was analyzed using Thermo Fisher Design and Analysis software. Data was exported to Excel and hFXN expression was normalized to hGAPDH expression.
For orientation: Real-time PCR tracks product formation cycle by cycle.
For `CC(=O)N1c2ccc(C3=CCN(C(=O)COCCOCCOCCOCCOCCC(=O)NCCCN(C)CCCNC(=O)CCNC(=O)c4nc(NC(=O)CCNC(=O)c5cc(NC(=O)c6nc(NC(=O)CCNC(=O)c7cc(NC(=O)c8nccn8C)cn7C)cn6C)cn5C)cn4C)CC3)cc2N(Cc2ccccc2CO)C[C@@H]1C1CC1` [Compound 29], the EC50 is 100 to 500 nM.

The same assay, now with this note: Homo sapiens; GM15850 cells, 48 hr incubation, hFXN normalized to hGAPDH; read-out: EC50 WT (nM, 48 hr).
On to `Cc1sc2c(c1C)C(c1ccc(Cl)cc1)=N[C@@H](CC(=O)Nc1ccc(OCCOCCOCCOCCOCCOCCC(=O)NCCCN(C)CCCNC(=O)CCNC(=O)c3nc(NC(=O)CCNC(=O)c4cc(NC(=O)c5nc(NC(=O)CCNC(=O)c6cc(NC(=O)c7nccn7C)cn6C)cn5C)cn4C)cn3C)cc1)c1nnc(C)n1-2` [Compound 3], for which the EC50 was 100 to 500 nM.

`COc1ccc2c(c1)C(c1ccc(Cl)cc1)=N[C@@H](CC(=O)Nc1ccc(OCCOCCOCCOCCOCCOCCC(=O)NCCCN(C)CCCNC(=O)CCNC(=O)c3nc(NC(=O)CCNC(=O)c4cc(NC(=O)c5nc(NC(=O)CCNC(=O)c6cc(NC(=O)c7nccn7C)cn6C)cn5C)cn4C)cn3C)cc1)c1nnc(C)n1-2` [Compound 6]: the EC50 lay in the range of 100 to 500 nM.

For the compound `Cc1noc(C)c1-c1cnc2c(-c3ccc(C(=O)NCCOCCOCCOCCOCCOCCC(=O)NCCCN(C)CCCNC(=O)CCNC(=O)c4nc(NC(=O)CCNC(=O)c5cc(NC(=O)c6nc(NC(=O)CCNC(=O)c7cc(NC(=O)c8nccn8C)cn7C)cn6C)cn5C)cn4C)cc3)cn([C@@H](C)c3ccccn3)c2c1` [Compound 8], the EC50 was less than 100 nM.

`Cc1cc(-c2nc3cnc(C4CCN(CCOCCOCCOCCOCCOCCC(=O)NCCCN(C)CCCNC(=O)CCNC(=O)c5nc(NC(=O)CCNC(=O)c6cc(NC(=O)c7nc(NC(=O)CCNC(=O)c8cc(NC(=O)c9nccn9C)cn8C)cn7C)cn6C)cn5C)CC4)cc3n2[C@@H](C)c2ccccc2)nn(C)c1=O` [Compound 9]: the EC50 lay within 100 to 500 nM.

For the compound `COC[C@@H](C)n1c(C2CCN(CCOCCOCCOCCOCCOCCC(=O)NCCCN(C)CCCNC(=O)CCNC(=O)c3nc(NC(=O)CCNC(=O)c4cc(NC(=O)c5nc(NC(=O)CCNC(=O)c6cc(NC(=O)c7nccn7C)cn6C)cn5C)cn4C)cn3C)CC2)nc2cnc3cc(-c4c(C)noc4C)c(OC)cc3c21` [Compound 10], the EC50 is 100 to 500 nM.

In the case of `COc1ccc2c(c1)C(c1ccc(Cl)cc1)=N[C@H](CC(=O)Nc1ccc(OCCOCCOCCOCCOCCOCCC(=O)NCCCN(C)CCCNC(=O)CCNC(=O)c3nc(NC(=O)CCNC(=O)c4cc(NC(=O)c5nc(NC(=O)CCNC(=O)c6cc(NC(=O)c7nccn7C)cn6C)cn5C)cn4C)cn3C)cc1)c1nnc(C)n1-2` [Compound 11], the EC50 is more than 500 nM.

Take `Cc1sc2c(c1C)C(c1ccc(Cl)cc1)=N[C@@H](CC(=O)Nc1ccc(OCCOCCOCCOCCOCCOCCOCCOCCOCCNC(=O)CCNC(=O)c3nc(NC(=O)CCNC(=O)c4cc(NC(=O)c5nc(NC(=O)CCNC(=O)c6cc(NC(=O)c7nccn7C)cn6C)cn5C)cn4C)cn3C)cc1)c1nnc(C)n1-2` [Compound 13]: the EC50 is less than 100 nM.

In the case of `Cc1sc2c(c1C)C(c1ccc(Cl)cc1)=N[C@@H](CC(=O)Nc1ccc(OCCOCCOCCOCCOCCOCCC(=O)NCCCN(C)CCCNC(=O)c3cc(NC(=O)c4nc(NC(=O)CCNC(=O)c5cc(NC(=O)c6nc(NC(=O)CCNC(=O)c7cc(NC(=O)c8nccn8C)cn7C)cn6C)cn5C)cn4C)cn3C)cc1)c1nnc(C)n1-2` [Compound 16], the EC50 fell in the range of 100 to 500 nM.

With `Cc1sc2c(c1C)C(c1ccc(Cl)cc1)=N[C@@H](CC(=O)Nc1ccc(OCCOCCOCCOCCOCCOCCOCCOCC(=O)NCCNC(=O)CCNC(=O)c3nc(NC(=O)CCNC(=O)c4cc(NC(=O)c5nc(NC(=O)CCNC(=O)c6cc(NC(=O)c7nccn7C)cn6C)cn5C)cn4C)cn3C)cc1)c1nnc(C)n1-2` [Compound 17], the EC50 was less than 100 nM.

In the case of `Cc1cc(-c2nc3cnc(C4CCN(C(=O)COCCOCCOCCOCCOCCC(=O)NCCCN(C)CCCNC(=O)CCNC(=O)c5nc(NC(=O)CCNC(=O)c6cc(NC(=O)c7nc(NC(=O)CCNC(=O)c8cc(NC(=O)c9nccn9C)cn8C)cn7C)cn6C)cn5C)CC4)cc3n2[C@@H](C)c2ccccc2)nn(C)c1=O` [Compound 19], the EC50 is less than 100 nM.

For the compound `COC[C@@H](C)n1c(C2CCN(C(=O)COCCOCCOCCOCCOCCC(=O)NCCCN(C)CCCNC(=O)CCNC(=O)c3nc(NC(=O)CCNC(=O)c4cc(NC(=O)c5nc(NC(=O)CCNC(=O)c6cc(NC(=O)c7nccn7C)cn6C)cn5C)cn4C)cn3C)CC2)nc2cnc3cc(-c4c(C)noc4C)c(OC)cc3c21` [Compound 20], the EC50 fell in the range of 100 to 500 nM.

Turning to `Cc1sc2c(c1C)C(c1ccc(Cl)cc1)=N[C@@H](CC(=O)Nc1ccc(OCCOCCOCCOCCOCCOCCNC(=O)CCNC(=O)c3nc(NC(=O)CCNC(=O)c4cc(NC(=O)c5nc(NC(=O)CCNC(=O)c6cc(NC(=O)c7nccn7C)cn6C)cn5C)cn4C)cn3C)cc1)c1nnc(C)n1-2` [Compound 21], the EC50 lay within 100 to 500 nM.

Turning to `Cc1sc2c(c1C)C(c1ccc(Cl)cc1)=N[C@@H](CC(=O)Nc1ccc(OCCOCCOCCOCCOCCOCCOCCNC(=O)CCNC(=O)c3nc(NC(=O)CCNC(=O)c4cc(NC(=O)c5nc(NC(=O)CCNC(=O)c6cc(NC(=O)c7nccn7C)cn6C)cn5C)cn4C)cn3C)cc1)c1nnc(C)n1-2` [Compound 22], the concentration for a half-maximal effect (EC50) was 100 to 500 nM.

For the compound `Cc1sc2c(c1C)C(c1ccc(Cl)cc1)=N[C@@H](CC(=O)Nc1ccc(OCCOCCOCCOCCOCCOCCOCCOCCNC(=O)CCNC(=O)c3nc(NC(=O)CCNC(=O)c4cc(NC(=O)c5nc(NC(=O)CCNC(=O)c6cc(NC(=O)c7nccn7C)cn6C)cn5C)cn4C)cn3C)cc1)c1nnc(C)n1-2` [Compound 23], the EC50 lay within 100 to 500 nM.

With `Cc1sc2c(c1C)C(c1ccc(Cl)cc1)=N[C@@H](CC(=O)Nc1ccc(OCCOCCOCCOCCOCCOCCOCCOCCOCCOCCNC(=O)CCNC(=O)c3nc(NC(=O)CCNC(=O)c4cc(NC(=O)c5nc(NC(=O)CCNC(=O)c6cc(NC(=O)c7nccn7C)cn6C)cn5C)cn4C)cn3C)cc1)c1nnc(C)n1-2` [Compound 24], the EC50 is less than 100 nM.

As for `COc1ccc2c(c1)C(c1ccc(Cl)cc1)=N[C@@H](CC(=O)Nc1ccc(OCCOCCOCCOCCOCCOCCOCCOCCOCCNC(=O)CCNC(=O)c3nc(NC(=O)CCNC(=O)c4cc(NC(=O)c5nc(NC(=O)CCNC(=O)c6cc(NC(=O)c7nccn7C)cn6C)cn5C)cn4C)cn3C)cc1)c1nnc(C)n1-2` [Compound 25], the EC50 fell in the range of 100 to 500 nM.

As for `COc1ccc2c(c1)C(c1ccc(Cl)cc1)=N[C@H](CC(=O)Nc1ccc(OCCOCCOCCOCCOCCOCCOCCOCCOCCNC(=O)CCNC(=O)c3nc(NC(=O)CCNC(=O)c4cc(NC(=O)c5nc(NC(=O)CCNC(=O)c6cc(NC(=O)c7nccn7C)cn6C)cn5C)cn4C)cn3C)cc1)c1nnc(C)n1-2` [Compound 26], the concentration for a half-maximal effect (EC50) was 100 to 500 nM.

In the case of `CC(=O)N1c2ccc(-c3cnc(C(=O)NCCOCCOCCOCCOCCOCCC(=O)NCCCN(C)CCCNC(=O)CCNC(=O)c4nc(NC(=O)CCNC(=O)c5cc(NC(=O)c6nc(NC(=O)CCNC(=O)c7cc(NC(=O)c8nccn8C)cn7C)cn6C)cn5C)cn4C)nc3)cc2N(Cc2ccccc2CO)C[C@@H]1C1CC1` [Compound 30], the EC50 was more than 500 nM.

For the compound `CC(=O)N1c2ccc(-c3ccc(C(=O)NCCOCCOCCOCCOCCOCCC(=O)NCCCN(C)CCCNC(=O)CCNC(=O)c4nc(NC(=O)CCNC(=O)c5cc(NC(=O)c6nc(NC(=O)CCNC(=O)c7cc(NC(=O)c8nccn8C)cn7C)cn6C)cn5C)cn4C)cc3)cc2[C@H](Nc2ccc(Cl)cc2)C[C@@H]1C` [Compound 31], the EC50 was less than 100 nM.

Turning to `Cc1sc2c(c1C)C(c1ccc(Cl)cc1)=N[C@@H](CC(=O)Nc1ccc(OCCOCCOCCOCCOCCOCCOCCOCCOCCNC(=O)CCNC(=O)c3cc(NC(=O)c4nc(NC(=O)CCNC(=O)c5cc(NC(=O)c6nc(NC(=O)CCNC(=O)c7cc(NC(=O)c8nccn8C)cn7C)cn6C)cn5C)cn4C)cn3C)cc1)c1nnc(C)n1-2` [Compound 33], the EC50 lay in the range of 100 to 500 nM.

As for `CC(=O)N1c2ccc(-c3ccc(C(=O)NCCOCCOCCOCCOCCOCCOCCOCCNC(=O)CCNC(=O)c4nc(NC(=O)CCNC(=O)c5cc(NC(=O)c6nc(NC(=O)CCNC(=O)c7cc(NC(=O)c8nccn8C)cn7C)cn6C)cn5C)cn4C)cc3)cc2[C@H](Nc2ccc(Cl)cc2)C[C@@H]1C` [Compound 35, N-(5-((3-((2-((1-(4-((2S,4R)-1-acetyl-4-((4-chlorophenyl)amino)-2-methyl-1,2,3,4-tetrahydroquinolin-6-yl)phenyl)-1,27-dioxo-5,8,11,14,17,20,23-heptaoxa-2,26-diazanonacosan-29-yl)carbamoyl)-1-methyl-1H-imidazol-4-yl)amino)-3-oxopropyl)carbamoyl)-1-methyl-1H-pyrrol-3-yl)-1-methyl-4-(3-(1-methyl-4-(1-methyl-1H-imidazole-2-carboxamido)-1H-pyrrole-2-carboxamido)propanamido)-1H-imidazole-2-carboxamide], the EC50 is less than 100 nM.

Turning to `CC(=O)N1c2ccc(-c3ccc(C(=O)NCCOCCOCCOCCOCCOCCOCCOCCOCCNC(=O)CCNC(=O)c4nc(NC(=O)CCNC(=O)c5cc(NC(=O)c6nc(NC(=O)CCNC(=O)c7cc(NC(=O)c8nccn8C)cn7C)cn6C)cn5C)cn4C)cc3)cc2[C@H](Nc2ccc(Cl)cc2)C[C@@H]1C` [Compound 36], the EC50 is less than 100 nM.

The EC50 is the concentration at which the effect is half-maximal.
